In the assay the target is T1, 5-HT1A receptor (Sus scrofa, UniProt A0A4X1UTF5).
T1 construct: Swine hippocampus was homogenized in a 50 mM Tris-Hcl buffer; from tissue; host or cells: swine hippocampus, membrane fraction
T1 sequence (A0A4X1UTF5 1-422): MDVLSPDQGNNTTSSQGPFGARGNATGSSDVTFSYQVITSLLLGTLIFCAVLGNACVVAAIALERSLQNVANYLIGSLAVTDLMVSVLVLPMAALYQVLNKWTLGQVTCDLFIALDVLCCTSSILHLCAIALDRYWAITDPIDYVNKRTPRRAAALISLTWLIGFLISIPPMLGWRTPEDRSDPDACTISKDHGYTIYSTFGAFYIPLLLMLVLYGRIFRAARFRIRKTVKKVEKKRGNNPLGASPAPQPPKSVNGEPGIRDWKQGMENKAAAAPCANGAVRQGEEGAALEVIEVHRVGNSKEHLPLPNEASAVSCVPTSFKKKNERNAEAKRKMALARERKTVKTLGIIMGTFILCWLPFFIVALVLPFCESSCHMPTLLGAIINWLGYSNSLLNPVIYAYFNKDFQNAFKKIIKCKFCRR
In words: Affinity for serotonin 1A receptor: inhibition of [3H]MPPF binding in swine hippocampal membrane fraction. The conditions noted are these: for IC50: [3H]MPPF 0.5 nM, swine hippocampal membrane, 37°C 30 min; for L/H ratio: low affinity IC50 divided by high affinity IC50, 1 or smaller = no intrinsic activity, 2 or greater = intrinsic activity. The source says: (1) The affinity of a test substance for a 5-HT1A receptor was examined by an inhibition experiment, in which the inhibitory effect of the test substance against the binding of [^3H]-4-(2′-methoxy)phenyl-1-(2′-(N-2″-pyridinyl)-p-fluorobenzamido)ethyl-piperazine (MPPF) that selectively binds to the 5-HT1A receptor in a swine hippocampal membrane fraction was examined. The 5-HT1A receptor that is a G-protein binding receptor becomes a G-protein binding state with addition of MgCl2. In contrast, it becomes a G-protein non-binding state with addition of guanylylimido diphosphate (Gpp(NH)p). […] Thus, both the affinity of a test substance to the receptor that was in a state of not binding to the G-protein and the affinity of the test substance to the receptor that was in a state of binding to the G-protein were obtained. Then, the obtained values were compared to each other, so as to estimate the level of the intrinsic activity of the test substance. Theoretically, when the value (L/H) obtained by dividing the affinity of a test substance to the receptor that is in a low affinity state (IC50 value) by the affinity of a test substance to the receptor that is in a high affinity state (IC50 value) is 1 or less, the intrinsic activity thereof is zero. The greater this value, the higher the intrinsic activity that can be obtained.
Swine hippocampus was homogenized in a 50 mM Tris-Hcl buffer (pH 7.4; hereinafter referred to as buffer A) that had been cooled on ice. The suspension was centrifuged at 40,000×g for 15 minutes. The obtained pellet was suspended in buffer solution A, and the thus obtained solution was then centrifuged at 40,000×g for 15 minutes. The same operation was repeated 2 or 3 times. The finally obtained pellet was suspended in a buffer solution A in an amount 10 times the wet weight of the swine hippocampus, so as to obtain a membrane fraction. The obtained membrane fraction was stored at −80° C. until use.
A mixture (0.5 ml) used for incubation comprised an appropriate amount of the membrane fraction, a test substance with a desired concentration, MgCl2 (final concentration: 10 mM) or Gpp(NH)p (final concentration: 1 mM), [^3H]MPPF (final concentration: 0.5 nM), dimethyl sulfoxide (final concentration: 1% (v/v)), and a 50 mM Tris-Hcl buffer (pH 7.4). The reaction was initiated with addition of the membrane fraction, and the mixture was incubated at 37° C. for 30 minutes. After completion of the incubation, the mixture was subjected to vacuum filtration with a glass filter, using Cell Harvester. The filter was washed with buffer solution A that had been cooled on ice. Thereafter, radioactivity binding to the receptor was measured with a liquid scintillation counter. Non-specific binding was defined as binding detected in the presence of 10 μM WAY-100,635.

Setting [1] is: receptor in high affinity (G-protein binding, MgCl2 10 mM) state, read-out: High affinity IC50.
The mark [2] stands for this setting: receptor in low affinity (G-protein non-binding, Gpp(NH)p 1 mM) state, read-out: Low affinity IC50.

Where two headings read alike, the source gives them in different places.

The results in this text go back to US20050256103A1, “Indole derivative having piperidine ring” (Eisai Co., Ltd., priority 2004, published 2005).

`CON=C1CCc2c(CCN3CCC(n4ccc5ccc(C(N)=O)cc54)CC3)c(OC)cc(OC)c21` [Compound 11, 1-{1-[2-(5,7-dimethoxy-1-methoxyiminoindan-4-yl)ethyl]piperidin-4-yl}-1H-indole-6-carboxamide]: the L/H ratio came out at 0.4. Under setting [1], the IC50 turned out to be 0.22 nM. Besides, the IC50 under setting [2] is 0.1 nM.
Taken in the same sequence, the figures for `COc1cc2c(cc1CCN1CCC(n3ccc4ccc(C(N)=O)cc43)CC1)C(=O)CCCO2` [Compound 12, 1-{1-[2-(8-methoxy-5-oxo-2,3,4,5-tetrahydrobenzo[b]oxepin-7-yl)ethyl]piperidin-4-yl}-1H-indole-6-carboxamide] were 0.9, 0.17 nM and 0.16 nM.
On to `CON=C1CCCOc2cc(OC)c(CCN3CCC(n4ccc5ccc(C(N)=O)cc54)CC3)cc21` [Compound 13, 1-{1-[2-(8-methoxy-5-methoxyimino-2,3,4,5-tetrahydrobenzo[b]oxepin-7-yl)ethyl]piperidin-4-yl}-1H-indole-6-carboxamide], for which the L/H ratio was 0.7. Further, the IC50 under setting [1] amounted to 0.32 nM. Also, the IC50 under setting [2] was found to be 0.22 nM.
As for `COc1ccc2c(c1CCN1CCC(n3ccc4ccc(C(N)=O)cc43)CC1)CC(C)(C)C2=O` [Compound 14, 1-{1-[2-(5-methoxy-2,2-dimethyl-1-oxoindan-4-yl)ethyl]piperidin-4-yl}-1H-indole-6-carboxamide], the L/H ratio stood at 0.7. Further, the IC50 under setting [1] was 0.46 nM. The IC50 under setting [2] stood at 0.34 nM.
With `CNC(=O)c1ccc2ccn(C3CCN(CCc4c(OC)ccc5nc(C)oc45)CC3)c2c1` [Compound 15], the L/H ratio was found to be 0.8. Also, the IC50 under setting [1] turned out to be 0.72 nM. Further, under setting [2], the IC50 came out at 0.61 nM.
The corresponding values for `CNC(=O)c1ccc2ccn(C3CCN(CCc4cc5nc(C)oc5cc4OC)CC3)c2c1` [Compound 16, 1-{1-[2-(6-methoxy-2-methylbenzoxazol-5-yl)ethyl]piperidin-4-yl}-N-methyl-1H-indole-6-carboxamide] are 0.9, 0.18 nM and 0.17 nM.
On to `CON=C1CCCc2c1ccc(OC)c2CCN1CCC(n2ccc3ccc(C(N)=O)cc32)CC1` [Compound 19, 1-{1-[2-(2-methoxy-5-methoxyimino-5,6,7,8-tetrahydronaphthalen-1-yl)ethyl]piperidin-4-yl}-1H-indole-6-carboxamide], for which the L/H ratio was found to be 0.6. Also, the IC50 under setting [1] was 1.1 nM. The IC50 under setting [2] amounted to 0.69 nM.
Consider `COc1ccc2cccnc2c1CCN1CCC(n2ccc3ccc(C(N)=O)cc32)CC1` [Compound 29, 1-{1-[2-(7-methoxyquinolin-8-yl)ethyl]piperidin-4-yl}-1H-indole-6-carboxamide], for which the L/H ratio was found to be 0.9. For the same compound, the IC50 under setting [1] amounted to 0.34 nM. The IC50 under setting [2] is 0.3 nM.
For the compound `COc1ccc2c(c1CCN1CCC(n3ccc4ccc(C(N)=O)cc43)CC1)OCC(C)(C)C2=O` [Compound 37, 1-{1-[2-(7-methoxy-3,3-dimethyl-4-oxochroman-8-yl)ethyl]piperidin-4-yl}-1H-indole-6-carboxamide], the L/H ratio is reported as 0.7. Besides, the IC50 under setting [1] turned out to be 0.55 nM. Further, under setting [2], the IC50 came out at 0.39 nM.
Consider `COc1cc2c(cc1CCN1CCC(n3ccc4ccc(C(N)=O)cc43)CC1)N(C)C(=O)OC2` [Compound 39, 1-{1-[2-(6-methoxy-methyl-oxo-1,4-dihydro-2H-benz[d][1,3]oxazin-7-yl)ethyl]piperidin-4-yl}-1H-indole-6-carboxamide], for which the IC50 was found to be 0.13 nM under setting [1] and 0.09 nM under setting [2].
As to `COCC1(C)CC(=O)c2ccc(OC)c(CCN3CCC(n4ccc5ccc(C(N)=O)cc54)CC3)c2O1` (centres unmarked) [Compound 40, 1-{1-[2-(7-methoxy-2-methoxymethyl-2-methyl-4-oxochroman-8-yl)ethyl]piperidin-4-yl}-1-H-indole-6-carboxamide], the L/H ratio is 0.9. The IC50 under setting [1] is 0.18 nM. For the same compound, the IC50 under setting [2] was determined as 0.17 nM.
As to `COc1ccc2c(c1CCN1CCC(n3ccc4ccc(C(N)=O)cc43)CC1)OC1(CCCC1)CC2=O` [Compound 41, 1-{1-[2-(7-methoxy-4-oxo-spiro(chroman-2,1′-cyclopentan)-8-yl)ethyl]piperidin-4-yl}-1H-indole-6-carboxamide], the L/H ratio amounted to 0.7. Also, the IC50 under setting [1] is 0.2 nM. Also, under setting [2], the IC50 turned out to be 0.14 nM.
Consider `COc1ccc2c(c1CCN1CCC(n3ccc4ccc(C(N)=O)cc43)CC1)OC1(CCOCC1)CC2=O` [Compound 43, 1-{1-[2-(7-methoxy-4-oxo-spiro(chroman-2,4′-oxan)-8-yl)ethyl]piperidin-4-yl}-1H-indole-6-carboxamide], for which the L/H ratio is reported as 0.7. The IC50 under setting [1] came out at 0.22 nM. Besides, the IC50 under setting [2] was found to be 0.15 nM.
`COc1cc2c(cc1CCN1CCC(n3ccc4ccc(C(N)=O)cc43)CC1)C(O)CC2` (stereo not drawn) [Compound 50, 1-{l-[2-(3-hydroxy-6-methoxyindan-5-yl)ethyl]piperidin-4-yl}-1H-indole-6-carboxamide]: the L/H ratio was 1. Also, under setting [1], the IC50 is 0.21 nM. The half-inhibitory concentration (IC50) under setting [2] is 0.21 nM.
`COc1cc2c(cc1CCN1CCC(n3ccc4ccc(C(N)=O)cc43)CC1)NC(=O)CC2` [Compound 56, 1-{1-[2-(6-methoxy-2-oxo-1,2,3,4-tetrahydroquinolin-7-yl)ethyl]piperidin-4-yl}-1H-indole-6-carboxamide]: the L/H ratio was found to be 0.5. In addition, the IC50 under setting [1] was found to be 0.07 nM. In addition, the IC50 under setting [2] came to 0.04 nM.
